Source: article PMC7796460, “Relation of Metal-Binding Property and Selective Toxicity of 8-Hydroxyquinoline Derived Mannich Bases Targeting Multidrug Resistant Cancer Cells” (Cancers, 2021)
Where two headings read alike, the source gives them in different places.

How the values were obtained:
[1] = system: MES-SA cells; test: MTT viability assay, MES-SA; format: cell-based, human
Description: (§1) MDCK II canine kidney cells, A431 epidermoid carcinoma cells, the human uterine sarcoma cell lines MES-SA and the doxorubicin selected MES-SA-Dx5 were obtained from ATCC (MDCK II: No. CRL-2936™, A431: No. CRL-1555™, MES-SA: No. CRL-1976™, MES-SA/Dx5: No. CRL-1977™). ABCB1 was expressed in A431 and MES-SA cells using lentiviral transduction. The human cervix carcinoma cell line KB-3-1 and the vinblastine selected KB-v1were kind gifts from Dr. Michael M. Gottesman, National Institutes of Health. The phenotype of the resistant cells was verified using cytotoxicity assays. MDCK-B1 and MDCK-MM were established by the Sleeping Beauty transposon-based gene delivery system. OVCAR-8 and NCI-ADRres cells (obtained from the Division of Cancer Treatment and Diagnosis (DCTD) Tumor Repository (National Cancer Institute, Frederick, MD, USA)) were cultivated in RPMI-1640 (Sigma Aldrich, Budapest, Hungary), and other cell lines were cultivated in Dulbecco’s Modified Eagle Medium (DMEM, Sigma Aldrich, Budapest, Hungary), supplemented with 10% fetal bovine serum, 5 mM glutamine, and 50 unit/mL penicillin and streptomycin (Life Technologies, Carlsbad, CA, USA). All cell lines were cultivated at 37 °C, 5% CO2.
(§2) MTT viability assays were performed as described earlier with minor modifications. Briefly, cells were seeded into 96-well tissue culture plates (Sarstedt, Newton, NC, USA/Orange, Braine-l’Alleud, Belgium) at a density of 5000 cells/well and allowed to attach overnight. Test compounds were added to achieve the required final concentration in a final volume of 100 µL per well. After an incubation period of 72 h, the supernatant was removed and fresh medium containing the MTT reagent (0.083 mg/mL) was added. Incubation with MTT at 37 °C was terminated after 1 h by removing the supernatant and lysing the cells with 100 µL DMSO per well. Viability of the cells was measured spectrophotometrically based on the absorbance values at 540 nm using either a Perkin Elmer Victor X3 or an EnSpire microplate reader. Data were background corrected by subtraction of the signal obtained from unstained cell lysates and normalized to untreated cells. Curves were fitted by Prism software (GraphPad Software Inc., San Diego, CA, USA) using the sigmoidal dose-response model (comparing variable and fixed slopes). […] Significance was calculated using unpaired t-tests; results are given as *: p ≤ 0.05, **: p ≤ 0.01, ***: p ≤ 0.001, ****: p ≤ 0.0001.

[2] = system: MES-SA/Dx5 cells; test: MTT viability assay, MES-SA/Dx5; format: cell-based, human; conditions: for SR: Table S1, IC50 Pgp negative divided by Pgp positive cells; for SR_TQ: Table S1, presence of 1 µM TQ
Description: as §1, §2

[3] = system: MES-SA/Dx5 cells; test: ROS determination with DCFDA, MES-SA/Dx5; format: cell-based, human; conditions: 2 h
Method: (§3) Measurements were performed as described earlier. Briefly, cells were harvested, washed with PBS, and incubated with 10 µM DCFDA in a water bath shaker at 37 °C for 30 min in a density of 3 × 10^6 cells/mL. After washing with PBS, cells were seeded to 96-well plates in PBS in a density of 2 × 10^4 cells/well. Following the measurement of the basal fluorescence, test compounds were added in different concentrations and the fluorescence of the samples was followed at time intervals of 10 min. DCFDA solution in buffer was used as a cell free control to test for interaction of the test compounds with DCFDA. Data were analyzed as fold change of fluorescence compared to basal levels and untreated cells. Significance was calculated using unpaired t-tests; results are given as *: p ≤ 0.05, **: p ≤ 0.01, ***: p ≤ 0.001, ****: p ≤ 0.0001.
(§4) Table S3: Characterization of intracellular ROS production with the DCFDA assay for P -gp negative MES-SA and P-gp positive MES-SA/Dx5 cells. Fold changes in fluorescence are shown after a 2 h with the investigated 8 -hydroxyquinoline ligands. Data S-refer to Figure 7 and allow […]
(§5) concentration range from 6.25µ M to 50µ M. Fold change of fluorescence obtained in the presence of 5 mM NAC is given in brackets.

[4] = system: MES-SA cells; test: ROS determination with DCFDA, MES-SA; format: cell-based, human; conditions: 2 h
Method: as §3, §4, §5

[5] = pKa by UV-visible spectrophotometric titrations; format: physicochemical; conditions: 0.2 M KCl (ionic strength), T = 25 °C, I = 0.2 M (KCl)
[6] = Table S1, calculated as ligand equivalents, presence of 1 µM TQ, read-out: IC50 MES-SA_TQ
[7] = Table S1, ligands and in situ preformed complexes, calculated as ligand equivalents, absence of TQ, read-out: IC50 MES-SA
[8] = Table S1, calculated as ligand equivalents, absence of TQ, read-out: IC50 Dx5
[9] = Table S1, calculated as ligand equivalents, presence of 1 µM TQ, read-out: IC50 Dx5_TQ
[10] = Homo sapiens, MES-SA, Table 2, value outside brackets, read-out: MES-SA (toxicity, Table 2)
[11] = Homo sapiens, MES-SA/Dx5, Table 2, value outside brackets, read-out: MES-SA/Dx5 (toxicity, Table 2)
[12] = Table 2, value outside brackets
[13] = group named in the cell (NmorpholiniumH+, NpiperidiniumH+, NbenzylamineH2+), read-out: pKa (additional)

Row | Structure (SMILES) | IC50 [1, 6] [nM] | IC50 [1, 7] [nM] | SR ([2]; absence of TQ) | IC50 [2, 8] [nM] | IC50 [2, 9] [nM] | SR_TQ [2] | IC50 [1, 10] [nM] | IC50 [2, 11] [nM] | SR MES-SA/Dx5 (Table 2) [2, 12] | further results
1 | [Cu+2].[O-]c1cccc2cccnc12.[O-]c1cccc2cccnc12 [1/2 [Cu(Q-1)2]] | 4140 ± 1200 | 3770 ± 660 | 1.86 | 2030 ± 460 | 2610 ± 440 | 1.58 |  |  |  | 
2 | [Cu+2].[O-]c1c(CN2CCOCC2)ccc2cccnc12.[O-]c1c(CN2CCOCC2)ccc2cccnc12 [1/2 [Cu(Q-2)2]] | 2020 ± 650 | 2270 ± 670 | 1.29 | 1760 ± 560 | 1920 ± 450 | 1.05 |  |  |  | 
3 | [Cu+2].[O-]c1c(CN2CCCCC2)ccc2cccnc12.[O-]c1c(CN2CCCCC2)ccc2cccnc12 [1/2 [Cu(Q-3)2]] | 2130 ± 650 | 1910 ± 590 | 2.52 | 760 ± 260 | 2040 ± 360 | 1.04 |  |  |  | 
4 | [Cu+2].[O-]c1c(CNCc2ccccc2F)cc(Cl)c2cccnc12.[O-]c1c(CNCc2ccccc2F)cc(Cl)c2cccnc12 [1/2 [Cu(Q-4)2]] | 1360 ± 260 | 1460 ± 160 | 5.03 | 290 ± 39 | 1220 ± 25 | 1.11 |  |  |  | 
5 | [Fe+3].[O-]c1cccc2cccnc12.[O-]c1cccc2cccnc12.[O-]c1cccc2cccnc12 [1/3 [Fe(Q-1)3]] | 3070 ± 360 | 3310 ± 520 | 1.13 | 2920 ± 800 | 2960 ± 640 | 1.04 |  |  |  | 
6 | [Fe+3].[O-]c1c(CN2CCOCC2)ccc2cccnc12.[O-]c1c(CN2CCOCC2)ccc2cccnc12.[O-]c1c(CN2CCOCC2)ccc2cccnc12 [1/3 [Fe(Q-2)3]] | 4350 ± 580 | 3870 ± 880 | 1.24 | 3130 ± 840 | 4230 ± 520 | 1.03 |  |  |  | 
7 | [Fe+3].[O-]c1c(CN2CCCCC2)ccc2cccnc12.[O-]c1c(CN2CCCCC2)ccc2cccnc12.[O-]c1c(CN2CCCCC2)ccc2cccnc12 [1/3 [Fe(Q-3)3]] | 1820 ± 710 | 2120 ± 680 | 2.33 | 910 ± 220 | 1450 ± 250 | 1.25 |  |  |  | 
8 | [Fe+3].[O-]c1c(CNCc2ccccc2F)cc(Cl)c2cccnc12.[O-]c1c(CNCc2ccccc2F)cc(Cl)c2cccnc12.[O-]c1c(CNCc2ccccc2F)cc(Cl)c2cccnc12 [1/3 [Fe(Q-4)3]] | 3540 ± 130 | 2950 ± 1330 | 13.14 | 220 ± 120 | 3450 ± 330 | 1.03 |  |  |  | 
9 | Oc1ccc(Cl)c2cccnc12 [Compound 5-Cl-Q-1] |  |  |  |  |  |  | 10400 ± 1710 | 9660 ± 2480 | 1.08 | Fold change in fluorescence (DCFDA) ([3]; MES-SA/Dx5, 6.25 µM): 1.203± 0.32; Fold change in fluorescence (DCFDA) ([3]; MES-SA/Dx5, 6.25 µM, presence of 5 mM NAC (brackets)): 1.279± 0.21; Fold change in fluorescence (DCFDA) ([3]; MES-SA/Dx5, 12.5 µM): 1.291± 0.48; Fold change in fluorescence (DCFDA) ([3]; MES-SA/Dx5, 12.5 µM, presence of 5 mM NAC (brackets)): 1.187± 0.23; Fold change in fluorescence (DCFDA) ([3]; MES-SA/Dx5, 25 µM): 1.355± 0.46; Fold change in fluorescence (DCFDA) ([3]; MES-SA/Dx5, 25 µM, presence of 5 mM NAC (brackets)): 1.220± 0.22; Fold change in fluorescence (DCFDA) ([3]; MES-SA/Dx5, 50 µM): 1.206± 0.49; Fold change in fluorescence (DCFDA) ([3]; MES-SA/Dx5, 50 µM, presence of 5 mM NAC (brackets)): 1.152± 0.06; SR MES-SA/Dx5 (Table 2) ([2]; Table 2, value in brackets (Tariquidar as in Table 1)): 1.46; Fold change in fluorescence (DCFDA) ([4]; 6.25 µM): 1.147± 0.32; Fold change in fluorescence (DCFDA) ([4]; 6.25 µM, presence of 5 mM NAC (brackets)): 1.668± 0.35; Fold change in fluorescence (DCFDA) ([4]; 12.5 µM): 1.119± 0.30; Fold change in fluorescence (DCFDA) ([4]; 12.5 µM, presence of 5 mM NAC (brackets)): 1.418± 0.24; Fold change in fluorescence (DCFDA) ([4]; 25 µM): 1.071± 0.35; Fold change in fluorescence (DCFDA) ([4]; 25 µM, presence of 5 mM NAC (brackets)): 1.443± 0.22; Fold change in fluorescence (DCFDA) ([4]; 50 µM): 0.891± 0.34; Fold change in fluorescence (DCFDA) ([4]; 50 µM, presence of 5 mM NAC (brackets)): 1.209± 0.23
10 | CC(=O)N[C@@H](CS)C(=O)O [NAC, N-acetyl cysteine, reference compound] |  |  |  |  |  |  |  |  |  | Effect on viability of the cells, alone ([1]; 5 mM, MES-SA): did not influence the viability; Effect on viability of the cells, alone ([2]; 5 mM, MES-SA/Dx5): did not influence the viability
11 | Oc1c(CN2CCOCC2)ccc2ccccc12 [NC-2, 2-(morpholino-methyl)naphthalen-1-ol] |  |  |  |  |  |  | 422000 ± 34900 | 562000 ± 36800 | 0.75 | pKa [5, 13]: 6.61 ± 0.02; pKa ([5]; read-out: pKa (OH)): 9.21 ± 0.02
12 | Oc1c(CN2CCCCC2)ccc2ccccc12 [NC-3, 2-(piperidin-1-ylmethyl)naphthalen-1-ol] |  |  |  |  |  |  | 140000 ± 47900 | 163000 ± 16600 | 0.86 | pKa [5, 13]: 10.12 ± 0.01; pKa ([5]; read-out: pKa (OH)): 6.06 ± 0.01
13 | Oc1c(CNCc2ccccc2F)ccc2ccccc12 [NC-4, 2-((2-fluorobenzylamino)methyl)naphthalen-1-ol] |  |  |  |  |  |  | 44700 ± 4520 | 31100 ± 2170 | 1.44 | pKa [5, 13]: 9.72 ± 0.02; pKa ([5]; read-out: pKa (OH)): 5.5 ± 0.02
